Laboratory results as given in patent publication US11149052B2, “2′3′-cyclic dinucleotides” (Institute of Organic Chemistry and Biochemistry, ASCR, V.V.I, priority 2018, dated 2021).

Experiments:
[1] = target: T1, AQ STING (truncated human STING G230A-R293Q allelic form) (Homo sapiens, UniProt Q86WV6, G230A/H232R/R293Q); test: Differential Scanning Fluorimetry with AQ STING; format: binding; settings: thermal shift vs apoprotein, 150 μM CDN, 0.1 mg/ml STING protein, SYPRO Orange; for ΔTm at 150 µM: read-out: DSF ΔTm (° C.) AQ STING
T1 construct: truncated human WT STING or AQ STING (amino acid residues 140-343); 8xHis (N, cleaved yes); SUMO (N, cleaved yes); made in house; host or cells: E. coli Rosetta-gami B (DE3)
T1 sequence (Q86WV6 140-343 G230A/H232R/R293Q): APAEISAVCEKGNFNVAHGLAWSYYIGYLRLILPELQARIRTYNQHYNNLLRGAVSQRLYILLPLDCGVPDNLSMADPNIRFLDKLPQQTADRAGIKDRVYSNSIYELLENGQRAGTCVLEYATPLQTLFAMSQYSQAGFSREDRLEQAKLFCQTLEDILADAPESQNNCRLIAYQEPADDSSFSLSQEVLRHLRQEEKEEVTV
Method: (§1) Purified PCR products were cleaved with restriction enzymes BamHI (cat. #R0136S, NEB, Ipswich, USA) and NotI (cat. #R0189S, NEB, Ipswich, USA) and cloned into the pSUMO vector linearized with the identical enzymes.
(§2) DNase I (cat. #D5025, Sigma Aldrich, Czech Republic) and RNase A (cat. #R6513, Sigma Aldrich, Czech Republic) were added (final concentration […]) together with MgCl2 (final concentration 5 mmol·l^−1) to the homogenate and bacteria were lysed using French Press G-M™ High-Pressure Cell Press Homogenizer (1500 psi, 3 cycles). […] The resin was poured into a chromatography column, washed with 50 ml buffer A (50 mmol·l^−1 TrisCl (pH 8.0), 800 mmol·l^−1 NaCl, 3 mmol·l^−1β-mercaptoethanol; 10% glycerol; 20 mmol·l^−1 imidazole) and 8-His-SUMO tagged STING proteins were eluted with 15 ml buffer A containing 300 mmol·l^−1 imidazole. […] Proteins were concentrated with Amicon® Ultra-15 10 K device (cat. #UFC901008, Merck Millipore, Billerica, USA) and flash frozen in liquid N2.
(§3) Differential Scanning Fluorimetry with WT STING and AQ STING
(§4) 20 μL solutions of the reaction mixtures were pipetted in triplicates into 96 well optical reaction plates and thermal denaturation of samples were performed on real time PCR cycler (LightCycler® 480 Instrument II—Roche, Base^1, Switzerland). The first derivative of the thermal denaturation curves was performed to calculate denaturing temperatures of STING-CDN complexes and STING apoproteins. The thermal shift for each CDN was calculated by subtracting the average denaturing temperature of STING apoprotein from the average denaturing temperature of STING CDN complex.

[2] = target: human wild type STING (WT STING) (Homo sapiens, UniProt Q86WV6, H232R); test: Digitonin assay using 293T wtSTING-FL reporter cells (ISRE firefly luciferase reporter); format: cell-based; settings: 293T wtSTING-FL cells; 30 min in Digitonin buffer, then 5 hours; luciferase read-out; 8-point dose-response curve; read-out: Digitonin assay EC50 (μmol · l^−1) WT STING
Sequence of human wild type STING (WT STING) (Q86WV6 whole entry H232R): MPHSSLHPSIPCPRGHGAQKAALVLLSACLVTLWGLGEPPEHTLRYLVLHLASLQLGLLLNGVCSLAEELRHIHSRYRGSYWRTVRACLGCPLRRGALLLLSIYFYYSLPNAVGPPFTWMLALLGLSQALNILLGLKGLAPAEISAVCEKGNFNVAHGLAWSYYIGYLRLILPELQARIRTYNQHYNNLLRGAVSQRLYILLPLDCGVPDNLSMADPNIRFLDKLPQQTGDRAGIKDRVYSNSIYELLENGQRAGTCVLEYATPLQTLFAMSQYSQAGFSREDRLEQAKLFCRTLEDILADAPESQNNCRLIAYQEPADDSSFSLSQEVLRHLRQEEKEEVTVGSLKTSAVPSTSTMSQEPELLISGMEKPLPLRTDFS
Text: Two complementary oligonucleotides of the sequence […] […] […] […] […] The oligonucleotides were mixed in equal molar amounts, hybridized, and cleaved by restriction endonucleases HindIII (cat. #. R0104S, NEB, Ipswich, USA) and BglII (cat. #R0144S, NEB, Ipswich, USA). Ultimately, they were ligated into plasmid pGL4.27 (cat. #E6651, Promega, Madison, USA) linearized with the same enzymes. As result the sequence with four ISRE sites was placed upstream of the minimum promoter of firefly luciferase reporter gene.
After 5 minutes incubation at room temperature (RT), 250 μL of the mixture was added dropwise to the cells in one well.
Transfected cells were seeded onto poly-D-lysine coated six well plates at density 50,000 cells per 1 cm^2 in DMEM medium with high glucose containing 10% heat inactivated FBS, 30 μg/mL blasticidin (cat. #ant-bl-05, InvivoGen, San Diego, USA), 0.06 mg/ml Penicillin G and 0.1 mg/ml Streptomycin Sulfate (both cat. #. L0018, Biowest, Riverside, USA). The medium was replenished every 3-4 days until visible colonies of cells resistant to blasticidin were formed.
Blasticidin resistant cells stably expressing WT STING were further transfected with […] plasmid following the same procedure as described above. […] Homogeneous culture of stably double transfected cells was prepared by limiting dilution of cells in 96 well plates and wells with cells were selected that originated from a single cell.
The medium was removed next day and three fold serial dilutions of compounds in Digitonin buffer containing 50 mmol·l^−1 HEPES (cat. #H3375, Sigma Aldrich, Czech Republic) pH 7.0, 100 mmol·l^−1 KCl, 3 mmol·l^−1 MgCl2, 0.1 mmol·l^−1 DTT (cat. #D0632, Sigma Aldrich, Czech Republic), 85 mmol·l^−1 Sucrose (cat. #S7903, Sigma Aldrich, Czech Republic), 0.2% BSA (cat. #A2153, Sigma Aldrich, Czech Republic), 1 mmol·l^−1 ATP (cat. #A1852, Sigma Aldrich, Czech Republic), 0.1 mmol·l^−1 GTP (cat. #G8877, Sigma Aldrich, Czech Republic), and 10 μg/mL Digitonin A (cat. #D141, Sigma Aldrich, Czech Republic) were added to the cells. The buffer was removed after 30 minutes incubation at 37° C. with 5% CO2, the cells were washed once with 100 μl of cultivation medium, and 100 IA of medium was added to each well. The plates with cells were incubated for 5 hours at 37° C. with 5% CO2, 50 μl of the medium was removed and 30 μl of ONE-Glo™ Luciferase Assay System reagent (cat. #E6120, Promega, Madison, USA) was added to each well. Luminesce was read on Synergy H1 (Biotek, Winooski, USA).

[3] = target: T2, WT STING (truncated human WT STING protein) (Homo sapiens, UniProt Q86WV6, H232R); test: Differential Scanning Fluorimetry with WT STING; format: binding; settings: thermal shift vs apoprotein, 150 μM CDN, 0.1 mg/ml STING protein, SYPRO Orange; for ΔTm at 150 µM: read-out: DSF ΔTm (° C.) WT STING
T2 construct: truncated human WT STING or AQ STING (amino acid residues 140-343); 8xHis (N, cleaved yes); SUMO (N, cleaved yes); made in house; host or cells: E. coli Rosetta-gami B (DE3)
T2 sequence (Q86WV6 140-343 H232R): as the sequence (Q86WV6 140-343 G230A/H232R/R293Q) above, with A91G, Q154R counted along it
Method: as §1, §2, §3, §4

SMILES	ΔTm at 150 µM [1] [°C]	EC50 [2] [nM]	ΔTm at 150 µM [3] [°C]	DSF ΔTm (° C.) AQ STING [1] [°C]	DSF ΔTm (° C.) WT STING [3] [°C]
Nc1nc2c(ncn2[C@@H]2O[C@@H]3COP(=O)(O)O[C@@H]4[C@H](O)[C@@H](COP(=O)(O)CO[C@H]3[C@H]2F)O[C@H]4n2cnc3c(N)ncnc32)c(=O)[nH]1 [Example 14, (1R,6R,8R,9R,10R,16R,18R,19R)-8-(2-amino-6-oxo-6,9-dihydro-1H-purin-9-yl)-18-(6-amino-9H-purin-9-yl)-9-fluoro-3,13,19-trihydroxy-2,4,7,11,14,17-hexaoxa-3λ^5,13λ^5-diphosphatricyclo[14.2.1.0^6,^10]nonadecane-3,13-dione]	14.2	80	6.7		
Nc1nc(N)c2ncn([C@@H]3O[C@@H]4COP(=O)(O)CO[C@H]5[C@@H](O)[C@H](n6cnc7c(N)ncnc76)O[C@@H]5COP(=O)(O)O[C@@H]3[C@@H]4F)c2n1 [Example 25, (1S,6R,8R,9R,10S,16R,18R,19R)-8-(6-amino-9H-purin-9-yl)-18-(2,6-diamino-9H-purin-9-yl)-19-fluoro-3,9,13-trihydroxy-2,4,7,11,14,17-hexaoxa-3λ^5,13λ^5-diphosphatricyclo[14.2.1.0^6,^10]nonadecane-3,13-dione]	17.5	53	10.6		
Nc1ncnc2c1ncn2[C@@H]1O[C@@H]2COP(=O)(O)O[C@@H]3[C@H](F)[C@@H](COP(=O)(O)CO[C@H]2[C@H]1F)O[C@H]3n1cnc2c(=O)[nH]cnc21 [Example 24]	25.7	20	20.4		
Nc1nc2c(ncn2[C@@H]2O[C@@H]3COP(=O)(O)CO[C@@H]4[C@H](O)[C@@H](COP(=O)(O)O[C@H]3[C@H]2F)O[C@H]4n2cnc3c(N)ncnc32)c(=O)[nH]1 [Example 7, (1R,6R,7R,8R,10R,16R,17R,19R)-8-(2-amino-6-oxo-6,9-dihydro-1H-purin-9-yl)-17-(6-amino-9H-purin-9-yl)-7-fluoro-4,13,19-trihydroxy-3,5,9,12,15,18-hexaoxa-4λ^5,13λ^5-diphosphatricyclo[14.2.1.0^6,^10]nonadecane-4,13-dione]	8.9	6100	1.8		
Nc1nc2c(ncn2[C@@H]2O[C@@H]3COP(=O)(O)O[C@H]4[C@@H](O)[C@H](n5cnc6c(=O)[nH]c(N)nc65)O[C@@H]4COP(=O)(O)O[C@H]3[C@H]2O)c(=O)[nH]1 [3′3′-c-di-GMP, reference compound]		5800		7.7	2.6
Nc1nc2c(ncn2[C@@H]2O[C@@H]3COP(=O)(O)CO[C@H]4[C@@H](F)[C@H](n5cnc6c(N)ncnc65)O[C@@H]4COP(=O)(O)O[C@@H]2[C@@H]3O)c(=O)[nH]1 [Example 10, (1R,6R,8R,9R,10R,16R,18R,19R)-18-(2-amino-6-oxo-6,9-dihydro-1H-purin-9-yl)-8-(6-amino-9H-purin-9-yl)-9-fluoro-3,13,19-trihydroxy-2,4,7,11,14,17-hexaoxa-3λ^5,13λ^5-diphosphatricyclo[14.2.1.0^6,^10]nonadecane-3,13-dione]	27	20	20.9		
